Laboratory results reported in patent publication US9296749B2, “Crystalline cis-(E)-4-(3-fluorophenyl)-2′,3′,4′,9′-tetrahydro-N,N-dimethyl-2′-(1-oxo-3-phenyl-2-propenyl)-spiro[cyclohexane-1,1′[1H]” (priority 2013, dated 2016).

Columns and labels:
Type in all cases: physicochemical
[1] = Interconversion/slurry experiments of mixed crystalline forms in 2-propanol (XRPD)
Protocol: About 25 mg of a specific crystalline form of compound (1) and 25 mg of the same or another crystalline form of compound (1) were charged into a vial and 1.0 mL of 2-Propanol was added. The vials were closed and the mixtures were stirred (via shaking using an Eppendorf Thermomixer, starting with 750 rpm, increased to 1000 rpm after 1 day) at an elevated temperature (30±2° C.) for 7 days. Subsequently the mixtures were cooled to 20±2° C. and stirred for an additional 2 hours.
The solids were then separated via filtration using a suction filter. To dry the thus obtained solid material an air flow was applied for 2 to 3 hours.
The crystalline form of the obtained materials was determined using XRPD. The experiments are summarized below in table 2 below.
A mixture of two different crystalline forms of compound (1) was charged into a vial and 1.0 mL of 2-Propanol was added (details see table).
The vials were closed and the mixtures were stirred (by means of shaking, Eppendorf Thermomixer, 750 rpm at first, increased to 1000 rpm after 1 d) at elevated temperature (30±2° C.) for 7 days.
Subsequently, the mixtures were cooled to 20±2° C. and stirred for additional 2 hours.
The solids were then isolated via filtration using a suction filter. The air flow from the suction pump was applied for 2 to 3 hours to dry the isolated solid.

[2] = Chemical stability of crystalline forms, open-vial storage (content by HPLC, crystalline form by XRPD)
Protocol: Samples of compound 1 in different crystalline forms were stored in open vials under controlled conditions at different temperatures and rel. humidities for 28 days. Prior to storage and after 14 and 28 days the content of compound (1) in the sample was determined via HPLC and the crystalline form was measured via XRPD.

[3] = Chemical stability in pharmaceutical compositions (excipient mixtures with 10% compound (1)); conditions: listed as A
Protocol: To test the chemical stability, i.e. compatibility of different crystalline forms of compound (1), solid multi component mixtures were prepared comprising well established excipients used for solid oral dosage form and having different functions therein. The single components of each mixture were exactly weighed and intensively triturated using a mortar and a pestle.
10 g of the final mixtures were separately filled into glass vials (open or closed) and stored under the conditions outlined below in table 13. Samples were taken and analyzed initially and after 1, 2 and 3 months with respect to the content of compound (1) within the mixtures.

[4] = Dynamic vapor sorption (DVS), hygroscopicity
Protocol: Crystalline forms were characterized by dynamic vapor sorption (DVS) using a Porotec DVS 1000 or a SMS DVS Intrinsic water vapor sorption analyzer. For the DVS analysis, a step width of 10% r.h. was applied allowing the samples to equilibrate and reach weight constancy (±0.002%) for at least 10 min on each step. All measurements were performed according to the following program: 50% r.h.→90% r.h., 90→0% r.h., 0%→90% r.h., 90%→50% r.h. A cycle with increasing humidity is also known as a sorption cycle, a cycle with decreasing humidity is also known as a desorption cycle. The details of the respective DVS measurements are shown below in table 51 and discussed further below.
The hygroscopicity of the respective crystalline forms determined via the DVS measurements was classified according to the ranges for mass increase defined in the European Pharmacopoeia: very hygroscopic (vh): increase of the mass ≧15%; hygroscopic (h): increase of the mass is less than 15% and equal or greater than 2%; slightly hygroscopic (sh): increase of the mass is less than 2% and equal or greater than 0.2%; not hygroscopic (nh): increase of the mass is less than 0.2%; deliquescent (d): sufficient water is absorbed to form a liquid.

[5] = Slurry of a single crystalline form in solvent, resulting form by XRPD
Protocol: A quantity of compound (1) is charged into a vial or flask and an amount of solvent is added. The resulting suspension/solution is stirred (e.g. orbital shaker or overhead-stirrer) for a given time at a specific temperature. Subsequently, if the suspension/solution was stirred at an elevated temperature, it is allowed to cool to room temperature or any other predetermined temperature to precipitate or crystallize the product and the solvent is removed by filtration.
The vial was closed and the mixture (a white suspension) was stirred (by means of shaking, 400 rpm, PLS Synthesiser) at room temperature (22±2° C.) for 13 days.
The solid was separated using a suction filter and dried by applying an air flow for additional 5 to 30 minutes (until the solid appeared to be dry).
The vial was closed and the suspension was stirred (by means of shaking, PLS shaker, 400 rpm) at an elevated temperature (40° C.±2) for 20 h.
The mixture was cooled to 20±2° C. The solid was separated using a suction filter (G4) and dried by applying an air flow until the sample appeared to be dry. The white solid was subsequently left for 1 h at ambient conditions.

In the case of `CN(C)[C@]1(c2cccc(F)c2)CC[C@]2(CC1)c1[nH]c3ccccc3c1CCN2C(=O)/C=C/c1ccccc1` [A17.9], the resulting crystalline form ([1]; 1.0 mL 2-Propanol, 30±2° C. 7 days, then 20±2° C. 2 hours, XRPD) is reported as “A + H”.

For `CN(C)[C@]1(c2cccc(F)c2)CC[C@]2(CC1)c1[nH]c3ccccc3c1CCN2C(=O)/C=C/c1ccccc1` [crystalline form A, cis-(E)-4-(3-Fluorophenyl)-2′,3′,4′,9′-tetrahydro-N,N-dimethyl-2′-(1-oxo-3-phenyl-2-propenyl)-spiro[cyclohexane-1,1′[1H]-pyrido[3,4-b]indol]-4-amine], the “Content cmpd (1)” value ([2]; 40° C., 75% r.H., storage 0 d, listed as A) was 99.58%, the “Content cmpd (1)” value ([2]; 40° C., 75% r.H., storage 14 d, listed as A) was 99.63% and the “Content cmpd (1)” value ([2]; 40° C., 75% r.H., storage 28 d, listed as A) was 99.39%. The “Content cmpd (1)” value ([2]; 50° C., storage 0 d, listed as A) was 99.58%, the “Content cmpd (1)” value ([2]; 50° C., storage 14 d, listed as A) was 99.49% and the “Content cmpd (1)” value ([2]; 50° C., storage 28 d, listed as A) was 99.37%. For the same compound, the “content of compound (1) within the mixture” value (“content of compound” below) ([3]; Lactose monohydrate, PVP25, Crospovidone, Talcum, 40° C., 75% rel. hum., 0 month) was 99.66, the “content of compound” value ([3]; Lactose monohydrate, PVP25, Crospovidone, Talcum, 40° C., 75% rel. hum., 1 month) was 99.93 and the “content of compound” value ([3]; Lactose monohydrate, PVP25, Crospovidone, Talcum, 40° C., 75% rel. hum., 2 months) was 99.72. For the same compound, the “content of compound” value ([3]; Lactose monohydrate, PVP25, Crospovidone, Talcum, 40° C., 75% rel. hum., 3 months) was 99.86, the “content of compound” value ([3]; Lactose monohydrate, PVP25, Crospovidone, Talcum, 50° C. dry, 0 month) was 99.66 and the “content of compound” value ([3]; Lactose monohydrate, PVP25, Crospovidone, Talcum, 50° C. dry, 1 month) was 99.58. The “content of compound” value ([3]; Lactose monohydrate, PVP25, Crospovidone, Talcum, 50° C. dry, 2 months) was 99.54, the “content of compound” value ([3]; Lactose monohydrate, PVP25, Crospovidone, Talcum, 50° C. dry, 3 months) was 99.56 and the “content of compound” value ([3]; Microcrystalline cellulose, HPMC 6 mPas, L-HPC LH21, magnesium stearate, 40° C., 75% rel. hum., 0 month) was 90.64. For the same compound, the “content of compound” value ([3]; Microcrystalline cellulose, HPMC 6 mPas, L-HPC LH21, magnesium stearate, 40° C., 75% rel. hum., 1 month) was 99.61, the “content of compound” value ([3]; Microcrystalline cellulose, HPMC 6 mPas, L-HPC LH21, magnesium stearate, 40° C., 75% rel. hum., 2 months) was 99.60 and the “content of compound” value ([3]; Microcrystalline cellulose, HPMC 6 mPas, L-HPC LH21, magnesium stearate, 40° C., 75% rel. hum., 3 months) was 99.66. For the same compound, the “content of compound” value ([3]; Microcrystalline cellulose, HPMC 6 mPas, L-HPC LH21, magnesium stearate, 50° C. dry, 0 month) was 99.64, the “content of compound” value ([3]; Microcrystalline cellulose, HPMC 6 mPas, L-HPC LH21, magnesium stearate, 50° C. dry, 1 month) was 99.59 and the “content of compound” value ([3]; Microcrystalline cellulose, HPMC 6 mPas, L-HPC LH21, magnesium stearate, 50° C. dry, 2 months) was 99.59. For the same compound, the “content of compound” value ([3]; Microcrystalline cellulose, HPMC 6 mPas, L-HPC LH21, magnesium stearate, 50° C. dry, 3 months) was 99.62, the “change in mass with increasing/decreasing relative humidity” value [4] was −0.2 to 0.1% and the hysteresis [4] was at most 0.5%. The hygroscopicity ([4]; classes of European Pharmacopoeia) was “not hygroscopic or just slightly hygroscopic”, the “thermodynamic stability relative to the other crystalline forms” value ([1]; conclusion from the interconversion experiments in 2-Propanol) was “thermodynamically more stable than the other crystalline forms” and the resulting crystalline form ([5]; suspension in ethanol, 40° C.±2, 20 h) was “crystalline form A”. The resulting crystalline form ([5]; suspension in ethylacetate/water 70:30, room temperature (22±2° C.), 13 days) was “crystalline form A”.

In the case of `CN(C)[C@]1(c2cccc(F)c2)CC[C@]2(CC1)c1[nH]c3ccccc3c1CCN2C(=O)/C=C/c1ccccc1` [crystalline form D, cis-(E)-4-(3-Fluorophenyl)-2′,3′,4′,9′-tetrahydro-N,N-dimethyl-2′-(1-oxo-3-phenyl-2-propenyl)-spiro[cyclohexane-1,1′[1H]-pyrido[3,4-b]indol]-4-amine], the “Content cmpd (1)” value ([2]; 40° C., 75% r.H., storage 0 d, listed as D) is reported as 84.61%, the “Content cmpd (1)” value ([2]; 40° C., 75% r.H., storage 14 d, listed as D) is reported as 84.27% and the “Content cmpd (1)” value ([2]; 40° C., 75% r.H., storage 28 d, listed as D) is reported as 83.92%. The “Content cmpd (1)” value ([2]; 50° C., storage 0 d, listed as D) was 84.61%, the “Content cmpd (1)” value ([2]; 50° C., storage 14 d, listed as D) was 84.65% and the “Content cmpd (1)” value ([2]; 50° C., storage 28 d, listed as D) was 83.54%. For the same compound, the “hysteresis (in words)” value ([4]; sorption and desorption behavior) was “no significant hysteresis” and the “transformation into another polymorphic form” value ([5]; suspensions of Table 6: acetonitrile, acetone/water or water, RT or 50° C., 3 to 5 d) was “did not transform into another polymorphic form”.

For `CN(C)[C@]1(c2cccc(F)c2)CC[C@]2(CC1)c1[nH]c3ccccc3c1CCN2C(=O)/C=C/c1ccccc1` [crystalline form E, cis-(E)-4-(3-Fluorophenyl)-2′,3′,4′,9′-tetrahydro-N,N-dimethyl-2′-(1-oxo-3-phenyl-2-propenyl)-spiro[cyclohexane-1,1′[1H]-pyrido[3,4-b]indol]-4-amine], the “Content cmpd (1)” value ([2]; 40° C., 75% r.H., storage 0 d, listed as E) was 99.76%, the “Content cmpd (1)” value ([2]; 40° C., 75% r.H., storage 14 d, listed as E) was 99.80% and the “Content cmpd (1)” value ([2]; 40° C., 75% r.H., storage 28 d, listed as E) was 99.50%. For the same compound, the “Content cmpd (1)” value ([2]; 50° C., storage 0 d, listed as E) was 99.76%, the “Content cmpd (1)” value ([2]; 50° C., storage 14 d, listed as E) was 97.25% and the “Content cmpd (1)” value ([2]; 50° C., storage 28 d, listed as E) was 95.53%. The “hysteresis (in words)” value ([4]; between 10% and 40% relative humidity) was “significant hysteresis”.
